According to patent US10987349B2, “Antitumor agent and bromodomain inhibitor” (FUJIFILM Corporation, priority 2016, dated 2021):

How the values were obtained:
MDA-MB-468 = test: Cell growth test (Cell Titer Blue) MDA-MB-468; format: cell-based; conditions: Homo sapiens, 72 h, MDA-MB-468, Breast cancer, 3 days
Description: (§1) Moreover, the compound of Example 14 was subjected to a cell growth test using various types of cell lines.
(§2) All cell lines other than the below-noticed cells were each seeded in a well plate, in which an RPMI-1640 medium supplemented with penicillin/streptomycin and FBS with a final concentration of 10% was placed. The human prostate cancer cell line VCaP (ATCC) was seeded in a well plate, in which DMEM medium supplemented with penicillin/streptomycin and FBS with a final concentration of 10% was placed. […] Thereafter, using Enspire Multimode Plate Reader (PerkinElmer), the amount of fluorescence at an excitation wavelength of 531 nm and a fluorescence wavelength of 615 nm was measured. Since the amount of fluorescence is in proportion to the concentration of a florescent product resorufin that is converted from resazurin as a redox dye by living cells, the amount of fluorescence was used as an indicator of the number of living cells. The growth inhibition percentage of the test compound in each concentration was calculated according to the following equation. Growth inhibition percentage (%)=(amount of fluorescence in test compound−added well)/(amount of fluorescence in DMSO−added well)×100 […]

PC-3 = test: Cell growth test (Cell Titer Blue) PC-3; format: cell-based; conditions: Homo sapiens, 72 h, PC-3, Prostate cancer, 3 days
Description: as §1, §2

U-937 = test: Cell growth test (Cell Titer Blue) U-937; format: cell-based; conditions: Homo sapiens, 72 h, U-937, Lymphoma, 3 days
Description: as §1, §2

MM.1S = test: Cell growth test (Cell Titer Blue) MM.1S; format: cell-based; conditions: Homo sapiens, MM1.S, 72 h, Myeloma, 3 days
Description: as §1, §2

HCT-15 = test: Cell growth test (Cell Titer Blue) HCT-15; format: cell-based; conditions: Homo sapiens, 72 h, HCT-15, Colon cancer, 3 days
Description: as §1, §2

MCF-7 = test: Cell growth test (Cell Titer Blue) MCF-7; format: cell-based; conditions: Homo sapiens, MCF7, 72 h, MCF-7, Breast cancer, 3 days
Description: as §1, §2

[1] = tested on: MV4-11 subcutaneously transplanted tumor; test: Medicinal effect test, MV4-11-subcutaneously-transplanted cancer-bearing mouse models, intravenous administration; format: in vivo; conditions: intravenously, once per day, 25 days, BALB/c nu/nu mice
Description: T/C (%) was calculated from the average tumor volume of each group according to the following equation, and medicinal effects were then evaluated. T/C(%)=[1−(average tumor volume of drug administration group)/(average tumor volume of solvent administration group)]×100%
Moreover, using the above-described mouse models, medicinal effects obtained upon intravenous administration were evaluated.
The human acute myeloid leukemia cell line MV4-11 (ATCC) was suspended in a mixture of RPMI-1640 […] and Matrigel (Corning), and the obtained mixture was then subcutaneously transplanted into 6-week-old female BALB/c nu/nu mice (CLEA Japan, Inc.). After confirming that the average tumor volume exceeded 200 mm^3, a test compound was dissolved in a solvent (a normal saline containing 1 equivalent of hydrochloric acid), and the obtained solution was then intravenously administered to the mice at a daily dose of 10 to 30 mg/kg, once per day, for 25 days. As a negative control, a solvent administration group involving administration of a normal saline was established. The tumor diameter was measured on a daily basis, and the tumor volume was calculated. In the same manner as described above, the tumor volume and T/C (%) were calculated, and medicinal effects were then evaluated.

MDA-MB-435 = test: Cell growth test (Cell Titer Blue) MDA-MB-435; format: cell-based; conditions: Homo sapiens, 72 h, MDA-MB-435, Melanoma, 3 days
Description: as §1, §2

BxPC-3 = test: Cell growth test (Cell Titer Blue) BxPC-3; format: cell-based; conditions: Homo sapiens, 72 h, BxPC-3, Pancreatic cancer, 3 days
Description: as §1, §2

SU-DHL-1 = test: Cell growth test (Cell Titer Blue) SU-DHL-1; format: cell-based; conditions: Homo sapiens, 72 h, SU-DHL-1, Lymphoma, 3 days
Description: as §1, §2

A2780 = test: Cell growth test (Cell Titer Blue) A2780; format: cell-based; conditions: Homo sapiens, 72 h, A2780, Ovarian cancer, 3 days
Description: as §1, §2

[2] = Intravenous administration toxicity test on rats; format: in vivo, rat
Description: With reference to the above-described findings, the compound of the present example was administered to rats via repeated intravenous administration, and the influence of the compound on the body weight and the digestive tract was then evaluated.
The compound of Example 14 was dissolved in a solvent (a normal saline containing 1 equivalent of hydrochloric acid), and the obtained solution was then intravenously administered to 6-week-old male SD rats (Charles River Laboratories Japan) at a dose of 30 to 60 mg/kg, once a day, for 7 days. As a negative control, a solvent administration group involving administration of a normal saline was established. At the time of the final administration, the plasma concentration of the compound of Example 14 was measured. […] Moreover, a weight reduction was not observed during the administration period. Furthermore, on the day following the final administration, pathological evaluation was carried out.

MOLT-4 = test: Cell growth test (Cell Titer Blue) MOLT-4; format: cell-based; conditions: Homo sapiens, 72 h, MOLT-4, Acute lymphoblastic leukemia, 3 days
Description: as §1, §2

Raji = test: Cell growth test (Cell Titer Blue) Raji; format: cell-based; conditions: Homo sapiens, 72 h, Lymphoma (DSMZ), 3 days
Description: as §1, §2

[3] = male SD rats, intravenously 30 to 60 mg/kg, once a day, 7 days

- GI50 (MDA-MB-468): 1200 nM
- GI50 (PC-3): 175 nM
- GI50 (U-937): 286 nM
- GI50 (MM.1S): 84 nM
- GI50 (HCT-15): 505 nM
- GI50 (MCF-7): 689 nM
- GI50 (MDA-MB-435): 2780 nM
- GI50 (BxPC-3): 2550 nM
- GI50 (SU-DHL-1): 1260 nM
- GI50 (A2780): 582 nM
- GI50 (MOLT-4): 57 nM
- GI50 (Raji): 203 nM
Compound: CCn1c(=O)cc(C2CCN(C)CC2)c2cc(C(=O)N(C)c3ccc(C)cc3)ccc21 [Example 14, 1-Ethyl-N-methyl-N-(4-methylphenyl)-4-(1-methylpiperidin-4-yl)-2-oxo-1,2-dihydroquinoline-6-carboxamide]
- T/C (%) ([1]; 10 mg/kg): 66%
- T/C (%) ([1]; 30 mg/kg): 78%
- plasma concentration at the time of the final administration [2, 3]: increased in proportion to the applied dose
- weight reduction during the administration period [2, 3]: not observed
- pathological evaluation of gastrointestinal epithelial cells including gastrointestinal epithelial stem cells ([2]; male SD rats, intravenously 30 to 60 mg/kg, once a day, 7 days, day following the final administration): no disorders were found
- AUC without weight reduction relative to the AUC upon intravenous administration in Test Example 3 ([2]; rats, intravenous): 3.8 times
